What all share (format): in vivo
The test system of assay [1] is velvetleaf (Abutilon theophrasti medicus). Put plainly: Test Example 3: herbicidal effect by application to upland field (foliage treatment). As to conditions: 14th day after application; for herbicidal effect, Velvetleaf: foliage treatment, 1,000 g active ingredient per 1 hectare, greenhouse. In outline: (§1)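 Two weeks after sowing in field soil under greenhouse conditions, seedlings receive a top-down foliar spray of wettable powder diluted in water at an active-ingredient rate of 1,000 g per hectare. Effect is rated against a standard 14 days post-treatment.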

The subject of assay [2] is slender amaranth (Amaranthus viridis L.). The description is as above. As to conditions: 14th day after application; for herbicidal effect, Slender Amaranth: foliage treatment, 1,000 g active ingredient per 1 hectare, greenhouse. A digest of the protocol: as §1
Assay [3] concerns green foxtail (Setaria viridis (L.) P. Beauv.). Described as above. As to conditions: 14th day after application; for herbicidal effect, Green Foxtail: foliage treatment, 1,000 g active ingredient per 1 hectare, greenhouse. In outline: as §1
In assay [4] the test system is barnyardgrass (Echinochloa crus-galli (L.) P. Beauv. var. crus-galli). The description is as above. To be noted: 14th day after application; for herbicidal effect, Barnyardgrass: foliage treatment, 1,000 g active ingredient per 1 hectare, greenhouse. In outline: as §1
Assay [5] deals with velvetleaf (Abutilon theophrasti medicus). Put plainly: Test Example 2: herbicidal effect by soil application to upland field. As to conditions: soil surface spray, upland field soil, 1,000 g active ingredient per hectare, 21st day after application. A digest of the protocol:
(§2)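 Pre-emergence soil test: seeds sown in pots of field soil, then wettable-powder formulation sprayed on soil surface at 1,000 g active ingredient per hectare in 1,000 L water per hectare. Plants grown in greenhouse; herbicidal effect scored on a standard scale at day 21.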

For assay [6], the system named is slender amaranth (Amaranthus viridis L.). The description is as above. To be noted: soil surface spray, upland field soil, 1,000 g active ingredient per hectare, 21st day after application. A digest of the protocol: as §2
The test system of assay [7] is green foxtail (Setaria viridis (L.) P. Beauv.). The assay is described as above. To be noted: soil surface spray, upland field soil, 1,000 g active ingredient per hectare, 21st day after application. A digest of the protocol: as §2
The subject of assay [8] is barnyardgrass (Echinochloa crus-galli (L.) P. Beauv. var. crus-galli). The assay is described as above. To be noted: soil surface spray, upland field soil, 1,000 g active ingredient per hectare, 21st day after application. A digest of the protocol:
as §2

In assay [9] the test system is heartshape false pickerelweed (Monochoria vaginalis (Burm.f.) C.Presl). Put plainly: Test Example 1: herbicidal effect by soil application to paddy field. As to conditions: paddy field soil application; active ingredient 1,000 g per 1 hectare; wettable powder added dropwise to water surface the day after sowing; examined on the 21st day after application. In outline: (§3)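 Under greenhouse conditions, seeds sown on puddled paddy soil in 100 cm2 pots under 3 cm of standing water received the test compound; injury was assessed with a standard scoring scheme three weeks (day 21) after treatment.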

The subject of assay [10] is early watergrass (Echinochloa oryzicola Vasing). The assay is described as above. To be noted: paddy field soil application; active ingredient 1,000 g per 1 hectare; wettable powder added dropwise to water surface the day after sowing; examined on the 21st day after application. In outline:
as §3

For assay [11], the system named is Japanese bulrush (Scirpus juncoides Roxb.). Described as above. As to conditions: paddy field soil application; active ingredient 1,000 g per 1 hectare; wettable powder added dropwise to water surface the day after sowing; examined on the 21st day after application. In outline: as §3
[12] abbreviates: foliage treatment, plants grown two weeks, 1,000 g active ingredient per hectare.

SMILES strings stand for the structures.

Regarding `CCn1ncc(C(=O)c2ccc(C(F)(F)F)n(CCOCCOC)c2=O)c1O` [IV-203], in assay [1], the “herbicidal effect, Velvetleaf” value was 5 (90% or more of herbicidal effect and crop phytotoxicity). The “herbicidal effect, Slender Amaranth” value in [2] was 5 (90% or more of herbicidal effect and crop phytotoxicity). Further, the “herbicidal effect, Green Foxtail” value in assay [3] is 5 (90% or more of herbicidal effect and crop phytotoxicity). In addition, the “herbicidal effect, Barnyardgrass” value in assay [4] was 5 (90% or more of herbicidal effect and crop phytotoxicity). The “herbicidal effect (index), Velvetleaf” value in assay [5] was 5 (90% or more of herbicidal effect and crop phytotoxicity). The “herbicidal effect (index), Slender Amaranth” value in assay [6] was 5 (90% or more of herbicidal effect and crop phytotoxicity). Also, the “herbicidal effect (index), Green Foxtail” value in [7] is 5 (90% or more of herbicidal effect and crop phytotoxicity). The “herbicidal effect (index), Barnyardgrass” value in [8] was 5 (90% or more of herbicidal effect and crop phytotoxicity). For the same molecule, in assay [9], the “herbicidal effect, Monochoria vaginalis (Burm. f.) C. Presl” value (“herbicidal effect, Monochoria vaginalis” below) is 5 (90% or more of herbicidal effect and crop phytotoxicity). Besides, in assay [10], the “herbicidal effect, Echinochloa oryzicola Vasing” value was 5 (90% or more of herbicidal effect and crop phytotoxicity). In addition, the “herbicidal effect, Scirpus juncoides Roxb.” value in [11] is 5 (90% or more of herbicidal effect and crop phytotoxicity).

As for `O=C1CCCC(O)=C1C(=O)c1ccc(C(F)(F)F)n(-c2cc(F)cc(F)c2)c1=O` [I-106], the “herbicidal effect (index), Velvetleaf” value in [1] (setting [12]) is 5 (90% or more of herbicidal effect and crop phytotoxicity); in assay [5] it was 5 (90% or more of herbicidal effect and crop phytotoxicity). Besides, the “herbicidal effect (index), Slender Amaranth” value was 5 (90% or more of herbicidal effect and crop phytotoxicity) in assay [2] (setting [12]); 5 (90% or more of herbicidal effect and crop phytotoxicity) in assay [6]. Moreover, the “herbicidal effect (index), Green Foxtail” value is 5 (90% or more of herbicidal effect and crop phytotoxicity) in assay [3] (setting [12]); 5 (90% or more of herbicidal effect and crop phytotoxicity) in [7]. For the same molecule, the “herbicidal effect (index), Barnyardgrass” value is 5 (90% or more of herbicidal effect and crop phytotoxicity) in assay [4] (setting [12]); 5 (90% or more of herbicidal effect and crop phytotoxicity) in assay [8]. Also, in [9], the “herbicidal effect, Monochoria vaginalis” value was 5 (90% or more of herbicidal effect and crop phytotoxicity). In addition, the “herbicidal effect, Echinochloa oryzicola Vasing” value in assay [10] is 5 (90% or more of herbicidal effect and crop phytotoxicity). The “herbicidal effect, Scirpus juncoides Roxb.” value in [11] was 5 (90% or more of herbicidal effect and crop phytotoxicity).

Take `CN(C)n1c(C(F)(F)F)ccc(C(=O)C2=C(O)CCCC2=O)c1=O` [I-171]: the “herbicidal effect, Velvetleaf” value in assay [1] is 5 (90% or more of herbicidal effect and crop phytotoxicity). Besides, the “herbicidal effect, Slender Amaranth” value in assay [2] was 5 (90% or more of herbicidal effect and crop phytotoxicity). Also, in [3], the “herbicidal effect, Green Foxtail” value was 4 (70 to less than 90% of herbicidal effect and crop phytotoxicity). Moreover, in [4], the “herbicidal effect, Barnyardgrass” value was 5 (90% or more of herbicidal effect and crop phytotoxicity). For the same molecule, the “herbicidal effect (index), Velvetleaf” value in assay [5] is 5 (90% or more of herbicidal effect and crop phytotoxicity). Also, the “herbicidal effect (index), Slender Amaranth” value in assay [6] was 5 (90% or more of herbicidal effect and crop phytotoxicity). In assay [7], the “herbicidal effect (index), Green Foxtail” value was 4 (70 to less than 90% of herbicidal effect and crop phytotoxicity). The “herbicidal effect (index), Barnyardgrass” value in assay [8] was 5 (90% or more of herbicidal effect and crop phytotoxicity). Moreover, in assay [9], the “herbicidal effect, Monochoria vaginalis” value was 5 (90% or more of herbicidal effect and crop phytotoxicity). Further, in assay [10], the “herbicidal effect, Echinochloa oryzicola Vasing” value was 5 (90% or more of herbicidal effect and crop phytotoxicity). Moreover, in assay [11], the “herbicidal effect, Scirpus juncoides Roxb.” value was 5 (90% or more of herbicidal effect and crop phytotoxicity).
